Values after ≈ are worked out from the molar mass of the structure shown. Where two headings read alike, the source gives them in different places.
How the values were obtained:
Type in all cases: cell-based
E. faecium ATCC 35667 = experiment: MIC, Gram-positive bacteria: E. faecium ATCC 35667; conditions: Enterococcus faecium, ATCC35667, column 2, read-out: Minimal Inhibitory Concentration (MIC) E. faecium ATCC 35667
[1] = system: S. aureus Vat A streptogramin; experiment: MIC, Gram-positive bacteria: S. aureus Vat A streptogramin; conditions: Staphylococcus aureus; Gram-positive; column 5; read-out: Minimal Inhibitory Concentration (MIC) S. aureus Vat A streptogramin
E. faecalis = experiment: MIC, Gram-positive bacteria: E. faecalis; conditions: Enterococcus faecalis, column 1, read-out: Minimal Inhibitory Concentration (MIC) E. faecalis
[2] = system: K. pneumoniae multidrug-resistant; experiment: MIC, Gram-negative bacteria: K. pneumoniae multidrug-resistant; conditions: Klebsiella pneumoniae, read-out: Minimal Inhibitory Concentration (MIC) K. pneumoniae multidrug-resistant
Gram-Negative Organisms = experiment: microbe, parasite or virus in culture
S. pneumoniae = experiment: MIC, Gram-positive bacteria: S. pneumoniae; conditions: Streptococcus pneumoniae, column 10, read-out: Minimal Inhibitory Concentration (MIC) S. pneumoniae
H. influenzae ATCC 49247 = experiment: MIC, Gram-negative bacteria: H. influenzae ATCC 49247; conditions: Haemophilus influenzae, ATCC49247, read-out: Minimal Inhibitory Concentration (MIC) H. influenzae ATCC 49247
P. aeruginosa ATCC 27853 = experiment: MIC, Gram-negative bacteria: P. aeruginosa ATCC 27853; conditions: Pseudomonas aeruginosa, ATCC27853, read-out: Minimal Inhibitory Concentration (MIC) P. aeruginosa ATCC 27853
[3] = system: P. aeruginosa MDR clinical isolate; experiment: MIC, Gram-negative bacteria: P. aeruginosa MDR clinical isolate; conditions: Pseudomonas aeruginosa, read-out: Minimal Inhibitory Concentration (MIC) P. aeruginosa MDR clinical isolate
[4] = system: S. aureus Linezolid-resistant; cfr; experiment: MIC, Gram-positive bacteria: S. aureus Linezolid-resistant; cfr; conditions: Staphylococcus aureus, column 9, read-out: Minimal Inhibitory Concentration (MIC) S. aureus Linezolid-resistant
S. aureus = experiment: MIC, Gram-positive bacteria: S. aureus (strains not named); conditions: Staphylococcus aureus, read-out: Minimal Inhibitory Concentration (MIC) S. aureus
E. faecium VRE; vanA = experiment: MIC, Gram-positive bacteria: E. faecium VRE; vanA; conditions: Enterococcus faecium, column 3, read-out: Minimal Inhibitory Concentration (MIC) E. faecium VRE
[5] = Acinetobacter baumannii, ATCC19606, read-out: Minimal Inhibitory Concentration (MIC), A. baumannii ATCC 19606
[6] = Escherichia coli, ATCC25922, read-out: Minimal Inhibitory Concentration (MIC), E. coli ATCC 25922
[7] = Escherichia coli, read-out: Minimal Inhibitory Concentration (MIC), E. coli BAS2006, OMP C, OMP F
[8] = Escherichia coli, read-out: Minimal Inhibitory Concentration (MIC), E. coli olC efflux defective
[9] = Escherichia coli, read-out: Minimal Inhibitory Concentration (MIC), E. coli permeability mutant BAS1314, IMP4213ZAB::TN10
[10] = Klebsiella pneumoniae, ATCC43816, read-out: Minimal Inhibitory Concentration (MIC), K. pneumoniae ATCC 43816
[11] = first unnamed S. aureus column (c4)
[12] = fourth unnamed S. aureus column (c8)
[13] = second unnamed S. aureus column (c6)
[14] = third unnamed S. aureus column (c7)
[15] = Escherichia coli, read-out: Minimal Inhibitory Concentration (MIC), E. coli ΔompC768, KanR insert

CC1=C\[C@@H](O)CC(=O)Cc2nc(co2)C(=O)N2CCC[C@@H]2C(=O)O[C@H](C(C)(C)C)[C@H](C)/C=C/C(=O)NC\C=C\1 [SA0306004]
MIC (E. faecium ATCC 35667): 32 µg/mL (≈ 59.1 µM)
MIC [1]: > 64 µg/mL
MIC (E. faecalis): > 64 µg/mL
MIC [2]: > 64 µg/mL
MIC (Gram-Negative Organisms; [5]): > 64 µg/mL
MIC (Gram-Negative Organisms; [6]): > 64 µg/mL
MIC (Gram-Negative Organisms; [7]): 4 µg/mL (≈ 7.38 µM)
MIC (Gram-Negative Organisms; [8]): 4 µg/mL (≈ 7.38 µM)
MIC (Gram-Negative Organisms; [9]): 4 µg/mL (≈ 7.38 µM)
MIC (Gram-Negative Organisms; [10]): > 64 µg/mL
MIC (S. pneumoniae): 64 µg/mL (≈ 118 µM)
MIC (H. influenzae ATCC 49247): > 64 µg/mL
MIC (P. aeruginosa ATCC 27853): > 64 µg/mL
MIC [3]: > 64 µg/mL
MIC [4]: > 64 µg/mL
MIC (S. aureus; [11]): 32 µg/mL (≈ 59.1 µM)
MIC (S. aureus; [12]): 32 µg/mL (≈ 59.1 µM)
MIC (S. aureus; [13]): 64 µg/mL (≈ 118 µM)
MIC (S. aureus; [14]): 64 µg/mL (≈ 118 µM)
MIC (E. faecium VRE; vanA): > 64 µg/mL

CC1=C\[C@@H](O)CC(=O)Cc2nc(co2)C(=O)N2CCC[C@@H]2C(=O)O[C@H]([C@@H](C)COC(=O)Nc2ccc(F)cc2)[C@H](C)/C=C/C(=O)NC\C=C\1 [SA0110036]
MIC (E. faecium ATCC 35667): 8 µg/mL (≈ 11.8 µM)
MIC [1]: > 64 µg/mL
MIC (E. faecalis): > 64 µg/mL
MIC [2]: > 64 µg/mL
MIC (Gram-Negative Organisms; [5]): > 64 µg/mL
MIC (Gram-Negative Organisms; [6]): > 64 µg/mL
MIC (Gram-Negative Organisms; [7]): 8 µg/mL (≈ 11.8 µM)
MIC (Gram-Negative Organisms; [8]): 2 µg/mL (≈ 2.94 µM)
MIC (Gram-Negative Organisms; [9]): 8 µg/mL (≈ 11.8 µM)
MIC (Gram-Negative Organisms; [10]): > 64 µg/mL
MIC (S. pneumoniae): 16 µg/mL (≈ 23.5 µM)
MIC (H. influenzae ATCC 49247): > 64 µg/mL
MIC (P. aeruginosa ATCC 27853): > 64 µg/mL
MIC [3]: > 64 µg/mL
MIC [4]: > 64 µg/mL
MIC (S. aureus; [11]): 32 µg/mL (≈ 47 µM)
MIC (S. aureus; [12]): 16 µg/mL (≈ 23.5 µM)
MIC (S. aureus; [13]): 32 µg/mL (≈ 47 µM)
MIC (S. aureus; [14]): > 64 µg/mL
MIC (E. faecium VRE; vanA): 32 µg/mL (≈ 47 µM)

CC1=C\[C@@H](O)CC(=O)Cc2nc(co2)C(=O)N2CCC[C@@H]2C(=O)O[C@H](C(C)C)[C@H](C)/C=C/C(=O)NC\C=C\1 [virginiamycin M2, Virginiamycin M2, reference compound]
MIC (E. faecium ATCC 35667): 4 µg/mL (≈ 7.58 µM)
MIC [1]: > 64 µg/mL
MIC (E. faecalis): > 64 µg/mL
MIC [2]: > 64 µg/mL
MIC (Gram-Negative Organisms; [5]): > 64 µg/mL
MIC (Gram-Negative Organisms; [6]): > 64 µg/mL
MIC (Gram-Negative Organisms; [7]): 2 µg/mL (≈ 3.79 µM)
MIC (Gram-Negative Organisms; [8]): 2 µg/mL (≈ 3.79 µM)
MIC (Gram-Negative Organisms; [9]): 2 µg/mL (≈ 3.79 µM)
MIC (Gram-Negative Organisms; [10]): > 64 µg/mL
MIC (S. pneumoniae): 8 µg/mL (≈ 15.2 µM)
MIC (H. influenzae ATCC 49247): 16 µg/mL (≈ 30.3 µM)
MIC (P. aeruginosa ATCC 27853): > 64 µg/mL
MIC [3]: > 64 µg/mL
MIC [4]: > 64 µg/mL
MIC (S. aureus; [11]): 16 µg/mL (≈ 30.3 µM)
MIC (S. aureus; [12]): 8 µg/mL (≈ 15.2 µM)
MIC (S. aureus; [13]): 16 µg/mL (≈ 30.3 µM)
MIC (S. aureus; [14]): 32 µg/mL (≈ 60.6 µM)
MIC (E. faecium VRE; vanA): 8 µg/mL (≈ 15.2 µM)

COc1ccc(NC(=O)OC[C@H](C)[C@H]2OC(=O)[C@H]3CCCN3C(=O)c3coc(n3)CC(=O)C[C@H](O)/C=C(C)/C=C/CNC(=O)/C=C/[C@H]2C)cc1 [SA0110040]
MIC (E. faecium ATCC 35667): 16 µg/mL (≈ 23.1 µM)
MIC [1]: > 64 µg/mL
MIC (E. faecalis): > 64 µg/mL
MIC [2]: > 64 µg/mL
MIC (Gram-Negative Organisms; [5]): > 64 µg/mL
MIC (Gram-Negative Organisms; [6]): > 64 µg/mL
MIC (Gram-Negative Organisms; [7]): 16 µg/mL (≈ 23.1 µM)
MIC (Gram-Negative Organisms; [8]): 2 µg/mL (≈ 2.89 µM)
MIC (Gram-Negative Organisms; [9]): 8 µg/mL (≈ 11.5 µM)
MIC (Gram-Negative Organisms; [10]): > 64 µg/mL
MIC (S. pneumoniae): 16 µg/mL (≈ 23.1 µM)
MIC (H. influenzae ATCC 49247): 16 µg/mL (≈ 23.1 µM)
MIC (P. aeruginosa ATCC 27853): > 64 µg/mL
MIC [3]: > 64 µg/mL
MIC [4]: > 64 µg/mL
MIC (S. aureus; [11]): 32 µg/mL (≈ 46.2 µM)
MIC (S. aureus; [12]): 16 µg/mL (≈ 23.1 µM)
MIC (S. aureus; [13]): 32 µg/mL (≈ 46.2 µM)
MIC (S. aureus; [14]): 64 µg/mL (≈ 92.4 µM)
MIC (E. faecium VRE; vanA): 64 µg/mL (≈ 92.4 µM)

COc1ccc(NC(=O)OC[C@@H](C)[C@H]2OC(=O)[C@H]3CCCN3C(=O)c3coc(n3)CC(=O)C[C@H](O)/C=C(C)/C=C/CNC(=O)/C=C/[C@H]2C)cc1 [SA0110185]
MIC (E. faecium ATCC 35667): 16 µg/mL (≈ 23.1 µM)
MIC [1]: > 64 µg/mL
MIC (E. faecalis): > 64 µg/mL
MIC [2]: > 64 µg/mL
MIC (Gram-Negative Organisms; [5]): > 64 µg/mL
MIC (Gram-Negative Organisms; [6]): > 64 µg/mL
MIC (Gram-Negative Organisms; [7]): 64 µg/mL (≈ 92.4 µM)
MIC (Gram-Negative Organisms; [8]): 2 µg/mL (≈ 2.89 µM)
MIC (Gram-Negative Organisms; [9]): 4 µg/mL (≈ 5.77 µM)
MIC (Gram-Negative Organisms; [15]): > 64 µg/mL
MIC (Gram-Negative Organisms; [10]): > 64 µg/mL
MIC (S. pneumoniae): 32 µg/mL (≈ 46.2 µM)
MIC (H. influenzae ATCC 49247): 16 µg/mL (≈ 23.1 µM)
MIC (P. aeruginosa ATCC 27853): > 64 µg/mL
MIC [3]: > 64 µg/mL
MIC [4]: > 64 µg/mL
MIC (S. aureus; [11]): 32 µg/mL (≈ 46.2 µM)
MIC (S. aureus; [12]): 16 µg/mL (≈ 23.1 µM)
MIC (S. aureus; [13]): 16 µg/mL (≈ 23.1 µM)
MIC (S. aureus; [14]): 32 µg/mL (≈ 46.2 µM)
MIC (E. faecium VRE; vanA): 32 µg/mL (≈ 46.2 µM)

CC1=C\[C@@H](O)CC(=O)Cc2nc(co2)C(=O)N2CCC[C@@H]2C(=O)O[C@H]([C@H](C)COC(=O)Nc2cnccn2)[C@H](C)/C=C/C(=O)NC\C=C\1 [SA0110215]
MIC (E. faecium ATCC 35667): 64 µg/mL (≈ 96.3 µM)
MIC [1]: > 64 µg/mL
MIC (E. faecalis): > 64 µg/mL
MIC [2]: > 64 µg/mL
MIC (Gram-Negative Organisms; [5]): > 64 µg/mL
MIC (Gram-Negative Organisms; [6]): > 64 µg/mL
MIC (Gram-Negative Organisms; [7]): > 64 µg/mL
MIC (Gram-Negative Organisms; [8]): 8 µg/mL (≈ 12 µM)
MIC (Gram-Negative Organisms; [9]): 16 µg/mL (≈ 24.1 µM)
MIC (Gram-Negative Organisms; [15]): > 64 µg/mL
MIC (Gram-Negative Organisms; [10]): > 64 µg/mL
MIC (S. pneumoniae): 64 µg/mL (≈ 96.3 µM)
MIC (H. influenzae ATCC 49247): 16 µg/mL (≈ 24.1 µM)
MIC (P. aeruginosa ATCC 27853): > 64 µg/mL
MIC [3]: > 64 µg/mL
MIC [4]: > 64 µg/mL
MIC (S. aureus; [11]): > 64 µg/mL
MIC (S. aureus; [12]): > 64 µg/mL
MIC (S. aureus; [13]): > 64 µg/mL
MIC (S. aureus; [14]): > 64 µg/mL
MIC (E. faecium VRE; vanA): > 64 µg/mL

CC1=C\[C@@H](O)CC(=O)Cc2nc(co2)C(=O)N2CCC[C@@H]2C(=O)O[C@H]([C@@H](C)CN2CCOCC2)[C@H](C)/C=C/C(=O)NC\C=C\1 [SA0110161]
MIC (E. faecium ATCC 35667): > 64 µg/mL
MIC [1]: > 64 µg/mL
MIC (E. faecalis): > 64 µg/mL
MIC [2]: > 64 µg/mL
MIC (Gram-Negative Organisms; [5]): > 64 µg/mL
MIC (Gram-Negative Organisms; [6]): > 64 µg/mL
MIC (Gram-Negative Organisms; [7]): > 64 µg/mL
MIC (Gram-Negative Organisms; [8]): > 64 µg/mL
MIC (Gram-Negative Organisms; [9]): > 64 µg/mL
MIC (Gram-Negative Organisms; [15]): > 64 µg/mL
MIC (Gram-Negative Organisms; [10]): > 64 µg/mL
MIC (S. pneumoniae): > 64 µg/mL
MIC (H. influenzae ATCC 49247): > 64 µg/mL
MIC (P. aeruginosa ATCC 27853): > 64 µg/mL
MIC [3]: > 64 µg/mL
MIC [4]: > 64 µg/mL
MIC (S. aureus; [11]): > 64 µg/mL
MIC (S. aureus; [12]): > 64 µg/mL
MIC (S. aureus; [13]): > 64 µg/mL
MIC (S. aureus; [14]): > 64 µg/mL
MIC (E. faecium VRE; vanA): > 64 µg/mL
